In paper PMC11462627, “SAL0114: a novel deuterated dextromethorphan-bupropion combination with improved antidepressant efficacy and safety profile” (Frontiers in Pharmacology, 2024):

Key:
[1] = molecular target: T1, nAchR α3β4 (Homo sapiens, UniProt P30926+P32297); assay: nAchR α3β4 radioligand binding (125I-epibatidine, recombinant CHO-K1 cells); details: 125I-epibatidine competition, human recombinant CHO-K1 cells, mean, n = 2; read-out: Ki, α3β4 nicotinic acetylcholine receptors
T1 construct: host or cells: CHO-K1
Procedure: The experiments were carried out in the Eurofins Discovery laboratory, and the methods were referenced from previous studies with modifications ([Michelmore et al., 2002]; [Zaveri et al., 2010]). The competitive binding of the samples and ^125I-epibatidine to the nAchR α3β4 in human recombinant CHO-K1 cells was assessed using a radioligand binding method. The ability of the compound to competitively bind to nAchR α3β4 (Ki) was determined by detecting the signal value of the radioligand bound to the receptor.

[2] = Pharmacokinetics in male SD rat after oral administration; format: in vivo; details: DM or deDM, male SD rat, oral, 50 mg/kg, mean, n=3
Source text: (§1) Results expressed as mean, n=3 per group

[3] = tested on: Sprague-Dawley rats; assay: Reserpine-induced hypothermia in rats; format: in vivo; details: oral, 30 min after treatment
Procedure: A reserpine-induced hypothermia test was performed according to the method described by Rojas-Corrales et al. ([Rojas-Corrales et al., 2004]; [Dhamija et al., 2017]), with some modifications. 80 male Sprague-Dawley rats were administered an intraperitoneal injection of reserpine (4 mg/kg). 18 h after the injection, rectal temperatures were measured using a rectal probe connected to a thermometer (MC-347, Omron Healthcare, Dalian, China). Rats with body temperatures not exceeding 34.5°C were considered successfully modeled. […] An additional group of ten rats not treated with reserpine served as the normal control. After the group assignment, the second phase of compound administration was initiated. The normal and model control groups received oral saline (10 mL/kg), whereas the other groups received their respective compounds orally at the specified doses, all in an equivalent volume (10 mL/kg). Rectal temperatures were measured 30 min after treatment to assess the effect of compounds in each group on the reserpine-induced hypothermia model. All experimental procedures were conducted in strict accordance with guidelines approved by the Institutional Animal Care and Use Committee of Shenzhen Salubris Pharmaceuticals Co., Ltd. A P value of less than 0.05 was considered statistically significant for comparisons between groups.

[4] = molecular target: T2, norepinephrine transporter (Homo sapiens, UniProt P23975); assay: Norepinephrine transporter (NET) radioligand binding (3H-Nisoxetine); details: 3H-Nisoxetine competition, mean, n = 2; read-out: Ki, norepinephrine transporter
T2 construct: purchased PerkinElmer, Inc RBHNETM400UA
Procedure: The experiments were carried out in the Pharmaron laboratory, and the methods were referenced from previous studies with modifications ([Bylund and Toews, 1993]; [Galli et al., 1995]). Competitive binding of the compound and ^3H-Nisoxetine to NETs was assessed using a radioligand binding method. The ability of the compound to competitively bind to NET (Ki) was determined by detecting the signal value of the radioligand bound to the transporter using a Microbeta instrument (2450, Perkin Elmer, Massachusetts, United States).

[5] = Pharmacokinetics in beagle dog after oral administration; format: in vivo; details: deDM, 14 mg/kg, mean, n=3
Source text: as §1

[6] = tested on: C57BL/6J mice; assay: Ammonia-induced cough mouse model; format: in vivo; details: oral; for cough inhibition rate: 0.5 h post-administration
Procedure: Antitussive effects were investigated using a classical mouse cough model induced by ammonia liquor, with some modifications ([Jiang et al., 2014]; [Adejayan et al., 2019]). An ammonia-induced cough model in male C57BL/6J mice was used to evaluate the antitussive effects using a two-step approach. The initial screening phase aimed to identify the mice with consistent and pronounced cough responses. Individual mice were exposed to 0.2 mL of 13% ammonium hydroxide solution in 500 mL glass vials. A trained observer measured the latency period and recorded the number of coughs over a 3-min period post-exposure. […] Following a 24-h recovery period, 70 eligible mice were randomly allocated to seven treatment groups (n = 10 per group) for the compound evaluation phase. […] All compounds were administered orally at a volume of 10 mL/kg. At 0.5 h post-administration, each mouse was re-exposed to 0.2 mL of 13% ammonia in a 500 mL glass jar for 1 min. Subsequently, the trained observer recorded the number of coughs over a 3-min period following removal from the jar. […] All experimental procedures were conducted in strict compliance with guidelines approved by the Institutional Animal Care and Use Committee of Shenzhen Salubris Pharmaceuticals Co., Ltd., ensuring adherence to ethical standards in animal research. A P value of less than 0.05 was considered statistically significant for comparisons between groups.

T2 sequence (P23975 whole entry): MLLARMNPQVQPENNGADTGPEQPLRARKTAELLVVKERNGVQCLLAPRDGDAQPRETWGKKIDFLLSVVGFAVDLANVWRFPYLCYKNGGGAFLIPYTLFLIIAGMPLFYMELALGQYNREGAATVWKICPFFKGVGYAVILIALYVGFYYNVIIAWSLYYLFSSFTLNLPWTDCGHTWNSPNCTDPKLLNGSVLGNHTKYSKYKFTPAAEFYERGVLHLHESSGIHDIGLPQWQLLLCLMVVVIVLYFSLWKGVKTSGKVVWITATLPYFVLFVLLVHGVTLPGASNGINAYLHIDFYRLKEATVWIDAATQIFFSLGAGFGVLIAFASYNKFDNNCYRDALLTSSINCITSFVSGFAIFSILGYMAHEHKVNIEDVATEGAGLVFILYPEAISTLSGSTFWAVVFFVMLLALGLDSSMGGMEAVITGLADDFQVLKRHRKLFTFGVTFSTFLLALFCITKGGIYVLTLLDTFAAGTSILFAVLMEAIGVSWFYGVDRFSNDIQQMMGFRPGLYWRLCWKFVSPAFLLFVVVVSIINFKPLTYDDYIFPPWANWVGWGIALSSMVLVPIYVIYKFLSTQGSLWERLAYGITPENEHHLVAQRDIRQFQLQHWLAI
T1 sequence (P32297 32-505): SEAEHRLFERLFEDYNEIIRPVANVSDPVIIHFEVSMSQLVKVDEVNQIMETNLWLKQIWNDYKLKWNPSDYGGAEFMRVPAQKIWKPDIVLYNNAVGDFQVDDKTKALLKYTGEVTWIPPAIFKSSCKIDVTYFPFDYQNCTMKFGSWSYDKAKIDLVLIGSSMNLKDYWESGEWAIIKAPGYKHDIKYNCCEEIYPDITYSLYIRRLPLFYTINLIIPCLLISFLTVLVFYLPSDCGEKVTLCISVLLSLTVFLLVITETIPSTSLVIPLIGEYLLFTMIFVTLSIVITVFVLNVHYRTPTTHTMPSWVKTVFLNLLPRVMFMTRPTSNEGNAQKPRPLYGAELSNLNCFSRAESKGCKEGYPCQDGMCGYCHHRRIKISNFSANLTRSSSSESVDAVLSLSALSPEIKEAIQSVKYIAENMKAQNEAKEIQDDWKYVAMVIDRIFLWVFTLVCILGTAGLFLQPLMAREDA
T1 sequence (P30926 22-498): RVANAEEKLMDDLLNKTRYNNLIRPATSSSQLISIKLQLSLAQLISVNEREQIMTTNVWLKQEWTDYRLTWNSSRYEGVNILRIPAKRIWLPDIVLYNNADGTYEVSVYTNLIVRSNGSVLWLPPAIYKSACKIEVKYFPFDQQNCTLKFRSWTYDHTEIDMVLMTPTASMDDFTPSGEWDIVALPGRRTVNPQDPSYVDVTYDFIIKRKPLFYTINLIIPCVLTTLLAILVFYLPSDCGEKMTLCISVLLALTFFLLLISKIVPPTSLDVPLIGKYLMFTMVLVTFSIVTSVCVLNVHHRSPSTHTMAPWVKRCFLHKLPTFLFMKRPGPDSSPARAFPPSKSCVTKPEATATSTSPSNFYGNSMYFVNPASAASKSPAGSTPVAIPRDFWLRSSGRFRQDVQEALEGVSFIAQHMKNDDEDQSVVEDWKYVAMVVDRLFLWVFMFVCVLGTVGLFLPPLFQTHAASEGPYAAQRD

## deuterated dextromethorphan [deDM]
[1]
  Ki: 15.8 µM
[2]
  AUC0-last: 374 ng·h/mL
  Cmax: 84 ng/mL
[3]; reserpine 4 mg/kg i.p. rats, BUP 40 mg/kg, deDM 5 and 10 mg/kg, deDM + BUP 5 + 40 and 10 + 40 mg/kg
  body temperature compared with the model (vehicle) group: increased the body temperature of model animals in a dose-dependent manner
[3]; reserpine rats, 10 mg/kg
  body temperature, high dose compared with the model (vehicle) group: reaching a statistically significant difference
[4]
  Ki: 17.1 µM
[5]; female beagle dog
  AUC0-last (♀): 153 ng·h/mL
  Cmax (♀): 60 ng/mL
[5]; male beagle dog
  AUC0-last (♂): 383 ng·h/mL
  Cmax (♂): 157 ng/mL
[6]; deDM 5 and 10 mg/kg, BUP 40 mg/kg, deDM + BUP 5 + 40 and 10 + 40 mg/kg
  cough inhibition compared with the vehicle group: neither deDM nor BUP significantly inhibited cough
[6]; high dose 10 mg/kg
  cough inhibition rate: 9.1%
[6]; low dose 5 mg/kg
  cough inhibition rate: 8.3%
